Article PMC11649909 (Nature Communications, 2024)
Where a chain is given by its changes, count along the chain named.

Experiments:
Assay in all cases: SPR
Type in all cases: binding
[1] = target: T1, ADIPOR2 (adiponectin receptor 2) (Homo sapiens, UniProt Q86V24)
T1 sequence (Q86V24 1-386): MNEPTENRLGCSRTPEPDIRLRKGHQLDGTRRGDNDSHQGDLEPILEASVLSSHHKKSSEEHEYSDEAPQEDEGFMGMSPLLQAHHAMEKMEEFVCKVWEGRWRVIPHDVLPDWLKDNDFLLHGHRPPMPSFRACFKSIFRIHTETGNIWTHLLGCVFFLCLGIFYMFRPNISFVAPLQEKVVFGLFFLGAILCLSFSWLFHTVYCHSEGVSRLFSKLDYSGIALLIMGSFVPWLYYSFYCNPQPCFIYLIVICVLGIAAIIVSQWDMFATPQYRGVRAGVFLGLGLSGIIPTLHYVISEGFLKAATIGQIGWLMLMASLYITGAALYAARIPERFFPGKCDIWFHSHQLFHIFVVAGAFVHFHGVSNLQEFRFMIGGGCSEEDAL

ADIPOR2 R331A = target: T2, ADIPOR2 R331A (Homo sapiens, UniProt Q86V24, R331A)
T2 sequence (Q86V24 1-386 R331A): T1 sequence (Q86V24 1-386) with R331A

ADIPOR2 R335A = target: T3, ADIPOR2 R335A (Homo sapiens, UniProt Q86V24, R335A)
T3 sequence (Q86V24 1-386 R335A): T1 sequence (Q86V24 1-386) with R335A

- Kd [1]: 1.99 µM
- Kd (ADIPOR2 R331A): 9.92 µM
- Kd (ADIPOR2 R335A): 50.1 µM
SMILES: COc1cc(C(=O)OCCCCNC(=N)N)cc(OC)c1O [SCM-198]
